Here are results for 18 molecules from patent US6388122B1, “Tryptase inhibitor and novel guanidino derivatives” (Ono Pharmaceutical Co., Ltd., priority 1996, dated 2002).

pIC50: −log10 of the molar value. Where a name gives a salt, the structure may show the parent alone.

Data set [1] concerns the target T1, trypsin (derived from bovine pancreas) (Bos taurus, UniProt P00760).
T1 construct: trypsin (derived from bovine pancreas); from tissue; host or cells: bovine pancreas
T1 sequence (P00760 24-246): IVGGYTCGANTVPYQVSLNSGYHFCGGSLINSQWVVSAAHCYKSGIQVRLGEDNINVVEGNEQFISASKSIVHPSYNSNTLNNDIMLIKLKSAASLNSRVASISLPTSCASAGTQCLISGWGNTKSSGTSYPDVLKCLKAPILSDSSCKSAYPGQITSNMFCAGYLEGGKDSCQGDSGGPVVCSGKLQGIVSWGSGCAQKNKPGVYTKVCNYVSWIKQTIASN
Briefly: Trypsin inhibitory activity (BAPNA absorbance). The settings on record: substrate BAPNA, pH 8.0, 30° C. The class given is biochemical. As for the experimental part: To 0.2 M HEPES/sodium hydroxide buffer (pH 8.0, 100 μl) and distilled water (640 μl) were added the subject compound in various concentrations or water (10 μl) and a 80 mU/ml trypsin (derived from bovine pancreas) solution (50 μl), and the resulting mixture was allowed to preincubation at 30° C. for a minute. To the resulting reaction mixture, 2.5 mM BAPNA (200 μl) was added, incubation was made at 30° C., and the absorbance at 405 nm was determined. The absorbance in the absence of the subject compound was defined as 100% to obtain the percentage (%) in the existence of the sample compound and calculate the value of IC50.

Data set [2] has as its target T2, Tryptase purified from the human lungs.
T2 construct: Tryptase was purified from the human lungs in accordance with the method of T. J. Smithetal. described in J. Biol. Chem., 259, 11046 (1984)
Briefly: Tryptase inhibitory activity (Boc-Phe-Ser-Arg-MCA fluorescence). Format: biochemical. To be noted: human lung tryptase, pH 7.5, 37° C., 5 minutes incubation, substrate Boc-Phe-Ser-Arg-MCA. On the procedure: Tryptase was purified from the human lungs in accordance with the method of T. J. Smithetal. described in J. Biol. Chem., 259, 11046 (1984). The enzyme purified in the concentration of 25.7 U/ml was diluted 10 times with 100 mM Tris/hydrochloride buffer (pH 7.5) at use. The enzyme solution prepared above (5 μl) was mixed with 100 mM Tris/hydrochloride buffer (pH 7.5, 500 μl) and the aqueous solution of the subject compound in various concentrations or water (5 μl), and the resulting mixture was incubated at 37° C. for 5 minutes. To the reaction mixture was added 20 mM Boc-Phe-Ser-Arg-MCA (2.5 μl), and elevation in fluorescence for a minute was determined at Ex=370 nm, Em=460 nm. The elevation in fluorescence in the absence of the subject compound was defined as 100% to obtain the percentage (%) in the existence of the sample compound and calculate the value of IC50.

Data set [3] relates to bleomycin-induced rat pulmonary fibrosis. Briefly: Effect on bleomycin-induced rat pulmonary fibrosis. The class given is in vivo. To be noted: 10 mg/kg oral once a day for 14 days, lungs taken 15 days after bleomycin. As for the experimental part:
Under anesthetization with pentobarbital, bleomycin hydrochloride (0.9 mg/0.3 ml) was given to rats by endotracheal administration to induce impairment. The lungs were taken out 15 days after inducing, the effect on pulmonary fibrogenesis was evaluated using the pulmonary […] content as the indication. The aqueous solution of the subject compound In concentration of 10 mg/kg was repeatedly given by oral administeration once a day for 14 days, initially administered 10 hours after the administration of bleomycin.

In data set [4] the test system is carbon tetrachloride-induced rat chronic hepatopathy. Briefly: Effect on carbon tetrachloride-induced rat chronic hepatopathy. Format: in vivo. To be noted: 3 mg/kg oral once a day for 8 weeks starting 5 weeks after carbon tetrachloride, liver taken at 12 weeks. As for the experimental part: Carbon tetrachloride (1.5 mg/kg) was repeatedly given to rats by subctaneous administration twice a week for 12 weeks to induce impairment. The liver was taken out 12 weeks after inducing, the effect on hepatic fibrogenesis was evaluated using the hepatic […] content as the indication. The aqueous solution of the subject compound in concentration of 3 mg/kg was repeatedly given by oral administeration once a day for 8 weeks, initially administered 5 weeks after the administration of carbon tetrachloride.

Data set [5] in a line: Toxicity (LD50, intravenous, male mice). The settings on record: mouse, in vivo, intravenously administered to male mice. An excerpt: Extremely low toxicity has been confirmed in each of the active ingredients and nontoxic salts and nontoxic acid addition salts thereof encompassed in the present invention. […] Accordingly, any of the active substances encompassed in the present invention can be considered to be adequately safe and suitable for use as pharmaceuticals.

Data set [6] has as its target T3, PLA2 (derived from pig pancreas) (Sus scrofa, UniProt P00592).
T3 construct: PLA2 (derived from pig pancreas); from tissue; host or cells: pig pancreas
As to the kind of experiment: PLA2 inhibitory activity (10PY-PC fluorescence). To be noted: pig pancreas PLA2, substrate 10PY-PC, pH 7.5. Format: biochemical. As for the experimental part:
A reaction mixture was prepared which contained 50 mM Tris/hydrochloride buffer (pH 7.5, 874 μl: 100 mM sodium chloride and 1 mM EDTA contained), 1 M calcium chloride (6 μl), 1% bovine serum albumin (10 μl) and 2.5 mM 10PY-PC (10 μl). To the reaction mixture were added the subject compound in various concentrations or water (50 μl) and a 10 mU/ml PLA2 (derived from pig pancreas) solution (50 μl), and the intensity of fluorescence was determined at Ex=345 nm and Em=396 nm. The intensity of fluorescence in the absence of the subject compound was defined as 100% to obtain the percentage (%) In the existence of the sample compound and calculate the value of IC50.

T3 sequence (P00592 23-146): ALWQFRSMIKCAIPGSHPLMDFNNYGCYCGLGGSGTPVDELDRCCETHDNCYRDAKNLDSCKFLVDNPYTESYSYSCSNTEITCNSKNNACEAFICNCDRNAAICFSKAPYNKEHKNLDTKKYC

One may read the pIC50 as the negative decadic logarithm of the IC50, by convention in mol/L. Take `CCOC(=O)C1CCCCN1C(=O)/C=C/c1ccc(C(=O)Oc2ccc(NC(=N)N)cc2)cc1` (stereo not shown) [Acetate of compound 7, p-(p-Guanidinophenoxycarbonyl)cinnamic Acid N-(2-ethoxcarbonyl)piperidlnylamide acetate]: the pIC50 in data set [1] is 6.74.

In the case of `C=CCN(CC(=O)O)C(=O)/C(C)=C/c1ccc(C(=O)Oc2ccc(C(=N)N)cc2)cc1` [Methanesulfonate of compound 17, p-(p-amidinophenoxycarbonyl)-α-methylcinnamic acid N-allyl-N-carboxylmethylamide], the negative-log IC50 (pIC50) in data set [2] is 7.90. In data set [3], the “Amount of pulmonary Hydroxypurine” value is 3.774 ± 0.504 μg/lung and the “Inhibition ratio (pulmonary hydroxypurine)” value is 40.6%.

Molecule `N=C(N)c1ccc(OC(=O)c2ccc(/C=C/C(=O)N3CCN(Cc4ccccc4)CC3)cc2)cc1` [Hydrochloride of compound 19-2, p-(p-amidinophenoxycarbonyl)cinnamic acid N-(4-phenyl-methyl)piperadinylamide] had a pIC50 in data set [2] of 9.68.

In turn, `CCOC(=O)CCN(CCCOC)C(=O)/C(C)=C/c1ccc(C(=O)Oc2ccc(C(=N)N)cc2)cc1` [Hydrochloride of compound 25, p-(p-amidinophenoxycarbonyl)-α-methylcinnamic acid N-2-ethoxycarbonylethyl-N-3-methoxypropylamide] showed a pIC50 in data set [2] of 8.86.

As for `CN(C)C(=O)COC(=O)Cc1ccc(OC(=O)c2ccc(NC(=N)N)cc2)cc1` [Methanesulfonate of compound 2, N,N-ddimethylcarbamoylmethyl p-(p-guanidinobenzoyloxy)phenylacetate], in data set [2], the pIC50 is 8.36.

Consider `C#CCN(CC(=O)OCC)C(=O)/C(C)=C/c1ccc(C(=O)Oc2ccc(C(=N)N)cc2)cc1` [Acetate of compound 18, p-(p-amidinophenoxycarbonyl)-α-methylcinnamic acid N-propargyl-N-ethoxycarbonylmethylamide], for which the negative-log IC50 (pIC50) in data set [2] is 8.62.

Molecule `CCCCCCN(CC(=O)OCC)C(=O)/C(C)=C/c1ccc(C(=O)Oc2ccc(C(=N)N)cc2)cc1` [Acetate of compound 22, p-(p-amidlnophenoxycarbonyl)-α-methylcinnamic acid N-ethoxycarbonylmethyl-N-hexylamide] gave a negative-log IC50 (pIC50) in data set [2] of 9.62.

For the molecule `N=C(N)Nc1ccc(C(=O)Oc2ccc(CC(=O)O)cc2)cc1` [Methanesulfonate of compound 3, p-(p-guanidinobenzoyloxy)phenylacetic acid], the negative logarithm of the IC50 (pIC50) in data set [2] was 7.28.

As usually defined, the LD50 is the dose expected to kill half of the subjects tested. Low readings indicate greater toxicity, high ones lower toxicity. Molecule `C=CCN(CC(=O)OCC)C(=O)/C(C)=C/c1ccc(C(=O)Oc2ccc(C(=N)N)cc2)cc1` [Methanesulfonate of compound 16, p-(p-amidinophenoxycarbonyl)-α-methylcinnamic acid N-allyl-N-ethoxycarbonylmethylamide] had a negative-log IC50 (pIC50) in data set [2] of 8.85. Moreover, in data set [4], the “Amount of hepatic Hydroxypurine” value is listed as 896.5 ± 686.7 μg/liver and the “Inhibition ratio (hepatic hydroxypurine)” value is 58.1%. In addition, the LD50 in data set [5] was 117 mg/kg.

In data set [6], `CCOC(=O)CN(C(=O)/C=C/c1ccc(C(=O)Oc2ccc(NC(=N)N)cc2)cc1)c1ccccc1` [Hydrochloride of compound 5, p-(p-Guanidinophenoxycarbonyl)cinnamic Acid N-phenyl-N-ethoxycarbonylmethylamide Hydrochloride] showed a pIC50 of 5.10.

Take `C=CCN(CC(=O)OCC)C(=O)/C(C)=C/c1ccc(C(=O)Oc2ccc(C(=N)N)cc2C(=O)OC)cc1` [Acetate of compound 23, p-(4-amidino-2-methoxycarbonylphenoxycarbonyl)-α-methylcinnamic acid N-allyl-N-ethoxycarbonylmethylamide]: the pIC50 in data set [2] is 9.34.

Take `CCOC(=O)CN(C(=O)/C(C)=C/c1ccc(C(=O)Oc2ccc(NC(=N)N)cc2)cc1)c1ccccc1` [Hydrochloride of compound 6, p-(p-Guanidinophenoxycarbony) -α-methylcinnamic Acid N-phenyl-N-ethoxycarbonylmethylamide Hydrochloride]: the pIC50 in data set [6] is 5.30; in data set [1], 6.96.

As for `CCOC(=O)CN(C(=O)c1ccc(C(=O)Oc2ccc(NC(=N)N)cc2)cc1)c1ccccc1` [Methanesulfonate of compound 14, p-(p-guanidinophenoxycarbonyl)benzoic acid N-phenyl-N-ethoxycarbonylmethylamide], the negative-log IC50 (pIC50) in data set [2] was 7.95.

In turn, `CCOC(=O)CC(CC(=O)OCC)N(C(=O)/C(C)=C/c1ccc(C(=O)Oc2ccc(C(=N)N)cc2)cc1)C1CCCCC1` [Acetate of compound 24] showed a pIC50 in data set [2] of 8.94.

`CCOC(=O)[C@@H]1CCCN1C(=O)/C=C/c1ccc(C(=O)Oc2ccc(NC(=N)N)cc2)cc1` [Acetate of compound 10, p-(p-Guanidinophenoxycarbonyl)cinnamic Acid N-(2-(S)-ethoxycarbonyl)pyrrolidinylamide Acetate]: the pIC50 in data set [1] is 6.74.

In data set [2], `N=C(N)Nc1ccc(OC(=O)c2cccc(S(N)(=O)=O)c2)cc1` [Methanesulfonate of compound 15, m-(p-guanidinophenoxycarbonyl)benzenesulfonamide] showed a pIC50 of 6.72.

In the case of `C=CCN(CC(=O)OCC)C(=O)/C(C)=C/c1ccc(C(=O)Oc2ccc(NC(=N)N)cc2)cc1` [Acetate of compound 13, p-(p-Guanidinophenoxycarbonyl)-α-methylcinnamic Acid N-allyl-N-ethoxycarbonylmethylamide Acetate], the pIC50 is 8.30 in data set [2] and 6.80 in data set [1].

As for `CCOC(=O)c1ccc(OC(=O)CCCCCNC(=N)N)cc1` [Methanesulfonate of compound 1, p-ethoxycarbonylphenyl 6-guanidinohexanoate], the pIC50 in data set [2] is 7.52.
